Reference: patent US12128023B2, “Pharmaceutical composition containing B-lapachone as active ingredient for prevention or treatment of cholestatic liver disease” (CUROME BIOSCIENCES CO., LTD., priority 2020, dated 2024)

What was measured:
[1] = system: peripheral blood mononuclear cells (PBMCs); test: IL-1β and IL-18 expression in LPS and ATP treated peripheral blood mononuclear cells; type: cell-based, C57BL/6 male mice; details: LPS 200 ng/mL and ATP, β-lapachone 0.5, 1, 2 μM, 4 hours
Protocol: Considering that inflammatory cytokines mediate the pathogenic mechanism of cholestatic liver disease, the peripheral blood mononuclear cell model was used by a modified method of Boyum et al. (1968). Peripheral blood mononuclear cells isolated from healthy 8-week-old C57BL/6 male mice (Samtako, Korea) were maintained by primary culture in RPMI-1640 medium containing 10% FBS, 2 mM glutamine, 100 U penicillin, and 0.1 mg/ml streptomycin. Stable peripheral blood mononuclear cells (PBMCs) were treated with LPS at 200 ng/mL and ATP and β-lapachone at 0, 0.5, 1, 2 μM in the medium and, after 4 hours, the expression levels of IL-1β and IL-18 were investigated, and the results are shown in FIG. 15.

[2] = system: DDC-induced cholestatic liver disease mice; test: DDC-induced cholestatic liver disease mice, DDC and β-lapachone administered together for 7 days; type: in vivo, C57BL/6 male mice
Protocol: To investigate the effect of β-lapachone (BL) on the occurrence of cholestatic liver disease, both […] and β-lapachone were administered to mice to characterize animal models.
After 8-week-old C57BL/6 male mice (Samtako, Korea) were divided into each group (=6), the mice were fed a diet with normal (vehicle), control (DDC), DDC-+β-lapachone 20 mg/kg, DDC+β-lapachone 40 mg/kg, DDC+β-lapachone 80 mg/kg, DDC+β-lapachone 100 mg/kg, and positive control DDC+ursodeoxycholic acid 100 mg/kg, and DDC+obeticholic acid 30 mg/kg (total 7 days). After 7 days of treatment, the mice were sacrificed and then the blood was collected from the heart. Thereafter, the levels of alanine aminotransferase (ALT), aspartate aminotransferase (AST), alkaline phosphatase (ALP), and bilirubin, which are blood indexes, were analyzed, and shown in FIG. 4.
After the cholestatic liver disease mouse animal models in Example 3.1 were sacrificed and the liver tissue was harvested therefrom, the mRNA levels of fibrosis-related genes were measured by a method similar to the method in Example 2.3.
In the cholestatic liver disease, the inflammation in the portal vein and damage to the bile ducts in the liver occur chronically, resulting in cholestasis and liver fibrosis. The mRNA levels of inflammatory cytokine genes in the liver tissue of the cholestatic liver disease mouse animal models obtained by the same method as in Example 3.1 were measured, and shown in FIG. 6.

[3] = system: Poly I:C-induced cholestatic liver disease animal models; test: Treatment effect in Poly I:C-induced primary biliary cirrhosis (PBC) mouse animal models; type: in vivo, C57BL/6 male mice
Protocol: Of cholestatic liver diseases, primary biliary cirrhosis (PBC) may be introduced to a similar state by using a viral RNA mimic and the Toll-like receptor polyinosinic-polycytidylic acid (Poly I:C). After 8-week-old C57BL/6 male mice (Samtako, Korea) were divided into each group (=6), each experimental group excluding a normal group was intraperitoneally administered 5 mg/kg Poly I:C twice a week for 8 weeks. Thereafter, the mice were fed a diet with control (vehicle), β-lapachone 40 mg/kg, β-lapachone 80 mg/kg, and positive control ursodeoxycholic acid 100 mg/kg and obeticholic acid 30 mg/kg for 8 weeks. On the 16th week of treatment, the experiment was ended, and the mice were sacrificed and then the blood was collected from the heart.

[4] = system: DSS-induced inflammatory bowel disease mice; test: DSS-induced inflammatory bowel disease (acute colitis) mouse models; type: in vivo, C57BL/6 female mice; details: for mortality (percent of mice that died): 14th day of the experiment, 70% died in DSS-induced IBD mice
Protocol: Dextran sodium sulfate (DSS)-induced acute colitis mouse models were constructed using 8-week-old C57BL/6 female mice (Samtako, Korea).
After 8-week-old C57BL/6 female mice (Samtako, Korea) were divided into each group (=10), each experimental group was fed a standard rodent diet supplemented with 3% (w/w) DSS in drinking water for the first 5 days to induce acute colitis and orally administered control (vehicle), β-lapachone 40 mg/kg, and β-lapachone 80 mg/kg for 14 days.
All animal-related procedures were discussed and approved by the Institutional Animal Care and Use Committee of the Hanyang University. The survival rate over time is shown in FIG. 9, and the change rate in body weight of mice in each experimental group was measured and shown in FIG. 10A. The fecal occult bleeding per rectum, total bleeding loss, and fecal concentration were measured daily.
By the same method as in Example 6.1, experimental groups were divided into a DSS untreated group (Control), a DSS treated group, and a DSS-+β-lapachone 80 mg/kg treated group, respectively, and treated. After the end of the experiment, the mice were sacrificed to remove the colon, and the accurate colon length was measured using a Vernier caliper, and is shown FIGS. 11A and 11B. In addition, the mRNA levels of genes of interleukin-1beta (IL-1β), interleukin-6 (IL-6), interleukin-18 (IL-18), interferon-γ (INF-γ), tumor necrosis factor-α (TNF-α), tumor necrosis factor-β (TNF-β), and monocyte chemoattractant protein-1 (MCP-1), which were inflammatory cytokine factors in the colon tissue, were analyzed by a real-time polymerase chain reaction through a conventional experiment procedure, and are shown in FIG. 12.

macrophage line Raw264.7 = test: Inflammatory cytokine release in LPS and ATP treated macrophage line Raw264.7 (ELISA); type: cell-based; details: Raw264.7, LPS 100 ng/ml, ATP 2.5 mM, 0.2, 0.5, 1, 2 μM β-lapachone, 24 hours; supernatant ELISA
Protocol: The macrophage line Raw264.7 (ATCC TIB-71, Manassas, VA, USA) was subcultured in DMEM supplemented with 10% FBS and 1% penicillin/streptomycin.
For inflammation induction, RAW264.7 cells were suspended in DMEM containing 2% FBS, inoculated in a 12-well plate to a cell number of 4×10^5/ml, and incubated in 5% CO2 incubator at 37° C. for 24 hours. With replacement with fresh media, the cells were treated with appropriate concentrations of a corresponding substance, LPS (100 ng/ml), and 0.2, 0.5, 1, and 2 μM β-lapachone, cultured for 24 hours, treated with ATP (2.5 mM), and then cultured for additional 30 minutes, and the supernatant was collected. The release of cytokines (IL-1β and TNF-α) of RaW264.7 macrophages was quantified using each cell-free supernatant-ELISA set (Invitrogen, Billerica, MA, USA) by Invitrogen according to the manufacture's instruction, and is shown in FIG. 14.

[5] = system: DDC-induced cholestatic liver disease mice; test: Preventive effect in DDC-induced cholestatic liver disease mouse animal models (β-lapachone given 3 days before DDC); type: in vivo, C57BL/6 male mice
Protocol: DDC-induced cholestatic liver disease mouse animal models were prepared according to the method of Elisa Pose et al. by using 8-week-old C57BL/6 male mice (Samtako, Korea). Briefly, cholestatic liver disease was induced by feeding a standard rodent diet supplemented with 0.1% (w/w) DDC for 7 or 14 days. The 12-hour light and dark cycle was maintained and animals were allowed to free access to water. The standard rodent diet included medium wheat, wheat, corn, and corn gluten flour, and soybean oil (14% protein). All animal related procedures were reviewed and approved by the Institutional Animal Care and Use Committee of Korea Research Institute of Bioscience and Biotechnology (KRIBB), KRIBB-AEC-20165). The tissue staining of the cholestatic liver disease animal models was measured through H&E staining (basic tissue staining), Sirius Red staining (collagen staining), and Masson's trichrome staining (collagen, cytoplasm, muscle fibers, etc.), and the tissue staining was measured by a skilled researcher. To investigate the preventive effect of β-Lapachone (BL) on cholestatic liver disease, the mice were fed a diet with 0 (DDC-vehicle), 40 mg/kg (DDC-BL40) and 80 mg/kg (DDC-BL80) 3 days before DDC treatment (total 17 days) and, after 3 days, were fed a diet with DDC (total 14 days). After 14 days of DDC treatment, the mice were sacrificed and the liver was harvested including the portal vein (PV) and bile ducts of the mice, and the surrounding lesions were confirmed by H&E, and are shown in FIG. 1. The liver harvested in Example 2.1 was investigated for tissues or connective tissues around cells through Sirius Red and Masson's trichrome staining, which are shown in FIG. 2A. The expression of the factors in the liver tissue obtained from the cholestatic liver disease mouse animal models of Example 2.1 was performed by a real-time polymerase chain reaction was performed according to the following procedure. Total RNA from liver samples was extracted using Tri-RNA Reagent (Favrogen BIOTECH CORP, Nong-Ke Rd, Taiwan) according to the procedure presented by Favrogen, and was reverse transcribed into cDNA by using PrimeScript™ RT reagent Kit with gDNA Eraser (TAKARA Korea Biomedical Inc, Seoul, 08506, Korea). Quantitative PCR was performed using TB Green™ Premix Ex Tag™ II (Tli RNaseH Plus), ROX plus (TAKARA Korea Biomedical Inc, Seoul, 08506, Korea) and QuantStudio 5 Real-Time PCR Instrument (Thermo Fisher Scientific, Waltham, MA, USA).

[6] = system: DDC-induced cholestatic liver disease mice; test: Treatment effect in cholestatic liver disease-induced mice (DDC 3 days, then treatment 4 days); type: in vivo, C57BL/6 male mice
Protocol: The treatment effect of β-lapachone in cholestatic liver disease-induced mouse animals were investigated. After 8-week-old C57BL/6 male mice (Samtako, Korea) were divided into each group (=6), each group excluding a control group was fed a diet containing 0.1% DDC for 3 days. Thereafter, the mice were fed a diet with DDC control (vehicle), DDC-+β-lapachone 20 mg/kg, DDC-+β-lapachone 40 mg/kg, DDC-+β-lapachone 80 mg/kg, and positive control DDC+obeticholic acid 30 mg/kg for 4 days (total 7 days). After 7 days of feeding, the mice were sacrificed and then the blood was collected from the heart.

[7] = system: LX-2 hepatic stellate cell line; test: Fibronectin and α-SMA protein expression in TGF-β1-treated LX-2 hepatic stellate cell line (immunoblotting); type: cell-based; details: LX-2, 1 ng/ml TGF-β1 + 0.5 or 1 μM β-lapachone, 24 hours
Protocol: Considering that inflammation and fibrosis of bile ducts cause cirrhosis in cholestatic liver disease, experiments were performed on the LX-2 hepatic stellate cell line model by using the method of Takaaki Higashi et al. (2017). The LX-2 cell line was subcultured in DMEM containing 10% FBS, 2 mM glutamine, 100 U penicillin, and 0.1 mg/ml streptomycin. The LX-2 cell line was added into a 6-well plate at a density of 16×10^4 cells/well, and cultured in DMEM containing 1 ng/ml TGF-β1, 1 ng/ml TGF-β1+0.5 μM β-lapachone or 1 ng/ml TGF-β1+1 μM β-lapachone for 24 hours. Thereafter, the protein expression levels of the fibrosis-related genes fibronectin and α-SMA of the obtained cells were measured by protein immunoblotting according to a conventional method known in the art.

[8] = DDC + β-lapachone 20, 40, 80, 100 mg/kg in diet, depending on the concentration
[9] = liver mRNA, DDC + β-lapachone, depending on the concentration
[10] = vs ursodeoxycholic acid 100 mg/kg and obeticholic acid 30 mg/kg
[11] = Poly I:C 5 mg/kg i.p. 8 weeks, then β-lapachone 40, 80 mg/kg in diet 8 weeks
[12] = DSS + β-lapachone 80 mg/kg vs DSS
[13] = liver mRNA, DDC-BL40 and DDC-BL80 vs DDC-vehicle
[14] = 0.1% DDC 3 days, then DDC + β-lapachone 20, 40, 80 mg/kg in diet 4 days, depending on the concentration

Compound: CC1(C)CCC2=C(O1)c1ccccc1C(=O)C2=O [β-lapachone]
- expression level of IL-1β increased by LPS and ATP [1]: reduced depending on the concentration
- expression level of IL-18 increased by LPS and ATP [1]: reduced depending on the concentration
- ALP in the blood [2, 8]: inhibited
- ALT in the blood [2, 8]: inhibited
- AST in the blood [2, 8]: inhibited
- bilirubin in the blood [2, 8]: inhibited
- transcriptional level of IL-1β ([2]; liver mRNA, DDC + β-lapachone): inhibited
- transcriptional level of TNFα ([2]; liver mRNA, DDC + β-lapachone): inhibited
- transcriptional level of Col1α1 [2, 9]: inhibited
- transcriptional level of Col1α2 [2, 9]: inhibited
- transcriptional level of TGF-β1 [2, 9]: inhibited
- effect on blood indexes (ALT, AST, ALP, bilirubin) compared with positive controls [2, 10]: excellent effects compared with ursodeoxycholic acid (UDCA) and obeticholic acid (OCA)
- ALP in the blood [3, 11]: inhibited
- ALT in the blood [3, 11]: inhibited
- AST in the blood [3, 11]: inhibited
- effect on blood indexes (AST, ALT, ALP) compared with comparative substances [3, 10]: excellent effect compared with the comparative substances ursodeoxycholic acid (UDCA) and obeticholic acid (OCA)
- mRNA level of IL-1β in colon tissue [4, 12]: significantly reduced
- mRNA level of IL-6 in colon tissue [4, 12]: significantly reduced
- mRNA level of IL-18 in colon tissue [4, 12]: significantly reduced
- mRNA level of INF-γ in colon tissue [4, 12]: significantly reduced
- mRNA level of MCP-1 in colon tissue [4, 12]: significantly reduced
- mRNA level of TNF-α in colon tissue [4, 12]: significantly reduced
- mRNA level of TNF-β in colon tissue [4, 12]: significantly reduced
- colon length ([4]; DSS + β-lapachone 80 mg/kg vs DSS treated group): recovered
- colitis score ([4]; sum of scores for body weight reduction, feces condition, blood feces (Table 3), β-lapachone 40 and 80 mg/kg): reduced depending on the treatment concentration
- mortality (percent of mice that died) ([4]; β-lapachone 40 mg/kg orally): 50%
- mortality (percent of mice that died) ([4]; β-lapachone 80 mg/kg orally): 20%
- expression level of IL-1β protein increased by LPS and ATP (macrophage line Raw264.7): reduced depending on the concentration
- expression level of TNF-α protein increased by LPS and ATP (macrophage line Raw264.7): reduced depending on the concentration
- lesions around the portal vein (PV) and bile ducts (H&E) ([5]; DDC-BL40 and DDC-BL80 (40 and 80 mg/kg in diet, 17 days; DDC 14 days) compared with DDC-vehicle, concentration dependent): significant lesion reductions
- transcriptional level of Col1α1 [5, 13]: significantly reduced
- transcriptional level of Col4α1 [5, 13]: significantly reduced
- transcriptional level of TGF-β1 [5, 13]: significantly reduced
- transcriptional level of fibronectin [5, 13]: significantly reduced
- transcriptional level of α-SMA [5, 13]: significantly reduced
- formation of connective tissues (Sirius Red and Masson's trichrome staining) ([5]; liver of DDC mice treated with β-lapachone 40 and 80 mg/kg vs DDC-vehicle): inhibited such fibrosis progression
- ALP in the blood [6, 14]: inhibited
- bilirubin in the blood [6, 14]: inhibited
- effect on blood indexes (bilirubin, ALP) compared with positive controls ([6]; vs ursodeoxycholic acid (UDCA) and obeticholic acid (OCA)): excellent effect compared with ursodeoxycholic acid (UDCA) and obeticholic acid (OCA)
- protein expression level of fibronectin increased by TGF-β1 [7]: reduced depending on the concentration
- protein expression level of α-SMA increased by TGF-β1 [7]: reduced depending on the concentration
